Measurements published in US6355799B1, “Substituted benzene compounds, process for their preparation, and herbicidal and defoliant compositions containing them” (ISK Americas Incorporated, priority 1997, dated 2002).

Key:
Type in all cases: in vivo
[1] = test system: redroot pigweed (Amaranthus retroflexus, AMARE); test: Pre-emerge test, greenhouse herbicide activity screening; details: pre-emerge; for Pre-emerge Herbicidal Activity AMARE: phytotoxicity rating 0-100 at 14 days after application; for phytotoxicity rating AMARE: 14 days after application, scale 0-100
Summary of the method: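 Plants grown in 10 cm pots of sandy loam mix received acetone-dissolved compounds through a moving flat-fan nozzle. Doses ranged from 15 to 1000 g ai/ha. Pre-emerge pots were seeded one day earlier, post-emerge pots 8–21 days earlier. Fourteen days on, each pot was graded 0–100 for damage.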

[2] = test system: barnyardgrass (Echinochloa crus-galli, ECHCG); test: as above; details: pre-emerge; for Pre-emerge Herbicidal Activity ECHCG: phytotoxicity rating 0-100 at 14 days after application; for phytotoxicity rating ECHCG: 14 days after application, scale 0-100
Summary of the method: (§1)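 Applied at 15–1000 g ai/ha from acetone in 187 l/ha spray volume. Post-emergence applications included 0.25% v/v non-ionic surfactant and reached plants sown 8–21 days before. Pre-emergence applications were incorporated by surface watering. Efficacy or crop damage was rated on a 0–100 scale after 14 days.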

[3] = test system: green foxtail (Setaria viridis, SETVI); test: as above; details: pre-emerge; for Pre-emerge Herbicidal Activity SETVI: phytotoxicity rating 0-100 at 14 days after application; for phytotoxicity rating SETVI: 14 days after application, scale 0-100
Summary of the method: as §1

[4] = test system: ivyleaf morningglory (Ipomoea hederacea, IPOHE); test: as above; details: pre-emerge; for Pre-emerge Herbicidal Activity IPOHE: phytotoxicity rating 0-100 at 14 days after application; for phytotoxicity rating IPOHE: 14 days after application, scale 0-100
Summary of the method: as §1

[5] = test system: johnsongrass (Sorghum halepense, SORHA); test: as above; details: pre-emerge; for Pre-emerge Herbicidal Activity SORHA: phytotoxicity rating 0-100 at 14 days after application; for phytotoxicity rating SORHA: 14 days after application, scale 0-100
Summary of the method: as §1

[6] = test system: lambsquarters (Chenopodium album, CHEAL); test: as above; details: pre-emerge; for Pre-emerge Herbicidal Activity CHEAL: phytotoxicity rating 0-100 at 14 days after application; for phytotoxicity rating CHEAL: 14 days after application, scale 0-100
Summary of the method: as §1

[7] = test system: large crabgrass (Digitaria sanguinalis, DIGSA); test: as above; details: pre-emerge; for Pre-emerge Herbicidal Activity DIGSA: phytotoxicity rating 0-100 at 14 days after application; for phytotoxicity rating DIGSA: 14 days after application, scale 0-100
Summary of the method: as §1

[8] = test system: sicklepod (Cassia obtusifolia, CASOB); test: as above; details: pre-emerge; for Pre-emerge Herbicidal Activity CASOB: phytotoxicity rating 0-100 at 14 days after application; for phytotoxicity rating CASOB: 14 days after application, scale 0-100
Summary of the method: as §1

[9] = test system: velvetleaf (Abutilon theophrasti, ABUTH); test: as above; details: pre-emerge; for Pre-emerge Herbicidal Activity ABUTH: phytotoxicity rating 0-100 at 14 days after application; for phytotoxicity rating ABUTH: 14 days after application, scale 0-100
Summary of the method: as §1

[10] = test system: field corn (Zea mays L., var. Dekalb 535, CORN); test: Pre-emerge test, crop safety; details: pre-emerge; for Pre-emerge Herbicidal Activity CORN: crop damage, phytotoxicity rating 0-100 at 14 days after application; for phytotoxicity rating CORN (crop damage): 14 days after application, scale 0-100
Summary of the method: (§2)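 Sandy loam pots; pre-emerge: sown 1 d pre-spray, surface-watered after, then bottom-watered. Post-emerge: sown 8–21 d before, 2–3 leaf stage, + 0.25% v/v NIS, bottom-watered. Acetone, 187 l/ha track spray, 15–1000 g ai/ha. 0–100 injury score, day 14.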

[11] = test system: upland rice (Oryza sp., var. Tebonnet, RICE); test: Pre-emerge test, crop safety; details: pre-emerge; for Pre-emerge Herbicidal Activity RICE: crop damage, phytotoxicity rating 0-100 at 14 days after application; for phytotoxicity rating RICE (crop damage): 14 days after application, scale 0-100
Summary of the method: as §2

[12] = test system: barnyardgrass (Echinochloa crus-galli, ECHCG); test: Post-emerge test, greenhouse herbicide activity screening; details: post-emerge; for Post-emerge Herbicidal Activity ECHCG: phytotoxicity rating 0-100 at 14 days after application; for ECHCG phytotoxicity rating: 14 days after application, rating scale 0-100
Summary of the method: (§3)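 Compounds in acetone were track-sprayed at 15–1000 g ai/ha: pre-emergence onto soil sown the previous day, then top-watered to incorporate and later bottom-watered; post-emergence onto 2–3 leaf plants with 0.25% v/v surfactant, bottom-watered only. Ratings on a 0–100 phytotoxicity scale were taken at day 14.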

[13] = test system: green foxtail (Setaria viridis, SETVI); test: as above; details: post-emerge; for Post-emerge Herbicidal Activity SETVI: phytotoxicity rating 0-100 at 14 days after application; for SETVI phytotoxicity rating: 14 days after application, rating scale 0-100
Summary of the method: as §3

[14] = test system: ivyleaf morningglory (Ipomoea hederacea, IPOHE); test: as above; details: post-emerge; for Post-emerge Herbicidal Activity IPOHE: phytotoxicity rating 0-100 at 14 days after application; for IPOHE phytotoxicity rating: 14 days after application, rating scale 0-100
Summary of the method: as §3

[15] = test system: lambsquarters (Chenopodium album, CHEAL); test: as above; details: post-emerge; for Post-emerge Herbicidal Activity CHEAL: phytotoxicity rating 0-100 at 14 days after application; for CHEAL phytotoxicity rating: 14 days after application, rating scale 0-100
Summary of the method: as §3

[16] = test system: large crabgrass (Digitaria sanguinalis, DIGSA); test: as above; details: post-emerge; for Post-emerge Herbicidal Activity DIGSA: phytotoxicity rating 0-100 at 14 days after application; for DIGSA phytotoxicity rating: 14 days after application, rating scale 0-100
Summary of the method: as §3

[17] = test system: redroot pigweed (Amaranthus retroflexus, AMARE); test: as above; details: post-emerge; for Post-emerge Herbicidal Activity AMARE: phytotoxicity rating 0-100 at 14 days after application; for AMARE phytotoxicity rating: 14 days after application, rating scale 0-100
Summary of the method: as §3

[18] = test system: sicklepod (Cassia obtusifolia, CASOB); test: as above; details: post-emerge; for Post-emerge Herbicidal Activity CASOB: phytotoxicity rating 0-100 at 14 days after application; for CASOB phytotoxicity rating: 14 days after application, rating scale 0-100
Summary of the method: as §3

[19] = test system: velvetleaf (Abutilon theophrasti, ABUTH); test: as above; details: post-emerge; for Post-emerge Herbicidal Activity ABUTH: phytotoxicity rating 0-100 at 14 days after application; for ABUTH phytotoxicity rating: 14 days after application, rating scale 0-100
Summary of the method: as §3

[20] = test system: field corn (Zea mays L., var. Dekalb 535, CORN); test: Post-emerge test, crop safety; details: post-emerge; for Post-emerge Herbicidal Activity CORN: crop damage rating 0-100 at 14 days after application; for CORN phytotoxicity rating (crop damage): 14 days after application, rating scale 0-100
Summary of the method: as §1

[21] = test system: upland rice (Oryza sp., var. Tebonnet, RICE); test: Post-emerge test, crop safety; details: post-emerge; for Post-emerge Herbicidal Activity RICE: crop damage rating 0-100 at 14 days after application; for RICE phytotoxicity rating (crop damage): 14 days after application, rating scale 0-100
Summary of the method: as §1

O=C(Nc1cc(Cl)ccc1-n1c(=O)n2n(c1=S)CCCC2)c1ccc2ccccc2c1 [9-14]
Pre-emerge Herbicidal Activity AMARE ([1]; rate 63 g ai/ha): 40 | Pre-emerge Herbicidal Activity AMARE ([1]; rate 250 g ai/ha): 65 | Pre-emerge Herbicidal Activity ECHCG ([2]; rate 63 g ai/ha): 0 | Pre-emerge Herbicidal Activity ECHCG ([2]; rate 250 g ai/ha): 40 | Pre-emerge Herbicidal Activity SETVI ([3]; rate 63 g ai/ha): 0 | Pre-emerge Herbicidal Activity SETVI ([3]; rate 250 g ai/ha): 30 | Pre-emerge Herbicidal Activity IPOHE ([4]; rate 63 g ai/ha): 0 | Pre-emerge Herbicidal Activity IPOHE ([4]; rate 250 g ai/ha): 10 | Pre-emerge Herbicidal Activity SORHA ([5]; rate 63 g ai/ha): 0 | Pre-emerge Herbicidal Activity SORHA ([5]; rate 250 g ai/ha): 10 | Pre-emerge Herbicidal Activity CHEAL ([6]; rate 63 g ai/ha): 80 | Pre-emerge Herbicidal Activity CHEAL ([6]; rate 250 g ai/ha): 100 | Pre-emerge Herbicidal Activity DIGSA ([7]; rate 63 g ai/ha): 0 | Pre-emerge Herbicidal Activity DIGSA ([7]; rate 250 g ai/ha): 30 | Pre-emerge Herbicidal Activity CASOB ([8]; rate 63 g ai/ha): 0 | Pre-emerge Herbicidal Activity CASOB ([8]; rate 250 g ai/ha): 0 | Pre-emerge Herbicidal Activity ABUTH ([9]; rate 63 g ai/ha): 20 | Pre-emerge Herbicidal Activity ABUTH ([9]; rate 250 g ai/ha): 85 | Pre-emerge Herbicidal Activity CORN ([10]; rate 63 g ai/ha): 0 | Pre-emerge Herbicidal Activity CORN ([10]; rate 250 g ai/ha): 0 | Pre-emerge Herbicidal Activity RICE ([11]; rate 63 g ai/ha): 0 | Pre-emerge Herbicidal Activity RICE ([11]; rate 250 g ai/ha): 10 | Post-emerge Herbicidal Activity ECHCG ([12]; 63 g ai/ha): 0 | Post-emerge Herbicidal Activity ECHCG ([12]; 250 g ai/ha): 10 | Post-emerge Herbicidal Activity SETVI ([13]; 63 g ai/ha): 10 | Post-emerge Herbicidal Activity SETVI ([13]; 250 g ai/ha): 20 | Post-emerge Herbicidal Activity IPOHE ([14]; 63 g ai/ha): 80 | Post-emerge Herbicidal Activity IPOHE ([14]; 250 g ai/ha): 90 | Post-emerge Herbicidal Activity CHEAL ([15]; 63 g ai/ha): 95 | Post-emerge Herbicidal Activity CHEAL ([15]; 250 g ai/ha): 100 | Post-emerge Herbicidal Activity DIGSA ([16]; 63 g ai/ha): 0 | Post-emerge Herbicidal Activity DIGSA ([16]; 250 g ai/ha): 10 | Post-emerge Herbicidal Activity AMARE ([17]; 63 g ai/ha): 85 | Post-emerge Herbicidal Activity AMARE ([17]; 250 g ai/ha): 100 | Post-emerge Herbicidal Activity CASOB ([18]; 63 g ai/ha): 40 | Post-emerge Herbicidal Activity CASOB ([18]; 250 g ai/ha): 40 | Post-emerge Herbicidal Activity ABUTH ([19]; 63 g ai/ha): 100 | Post-emerge Herbicidal Activity ABUTH ([19]; 250 g ai/ha): 100 | Post-emerge Herbicidal Activity CORN ([20]; 63 g ai/ha): 15 | Post-emerge Herbicidal Activity CORN ([20]; 250 g ai/ha): 50 | Post-emerge Herbicidal Activity RICE ([21]; 63 g ai/ha): 0 | Post-emerge Herbicidal Activity RICE ([21]; 250 g ai/ha): 40

COc1c(Cl)cc(F)c(-n2c(=O)cc(C(F)(F)F)n(N)c2=O)c1NC(=O)C=Cc1ccccc1 [2-185]
phytotoxicity rating AMARE ([1]; 63 g ai/ha): 100 | phytotoxicity rating AMARE ([1]; 250 g ai/ha): 100 | phytotoxicity rating ECHCG ([2]; 63 g ai/ha): 10 | phytotoxicity rating ECHCG ([2]; 250 g ai/ha): 10 | phytotoxicity rating SETVI ([3]; 63 g ai/ha): 30 | phytotoxicity rating SETVI ([3]; 250 g ai/ha): 50 | phytotoxicity rating IPOHE ([4]; 63 g ai/ha): 60 | phytotoxicity rating IPOHE ([4]; 250 g ai/ha): 60 | phytotoxicity rating SORHA ([5]; 63 g ai/ha): 20 | phytotoxicity rating SORHA ([5]; 250 g ai/ha): 20 | phytotoxicity rating CHEAL ([6]; 63 g ai/ha): 100 | phytotoxicity rating CHEAL ([6]; 250 g ai/ha): 100 | phytotoxicity rating DIGSA ([7]; 63 g ai/ha): 20 | phytotoxicity rating DIGSA ([7]; 250 g ai/ha): 40 | phytotoxicity rating CASOB ([8]; 63 g ai/ha): 0 | phytotoxicity rating CASOB ([8]; 250 g ai/ha): 60 | phytotoxicity rating ABUTH ([9]; 63 g ai/ha): 90 | phytotoxicity rating ABUTH ([9]; 250 g ai/ha): 100 | phytotoxicity rating CORN (crop damage) ([10]; 63 g ai/ha): 0 | phytotoxicity rating CORN (crop damage) ([10]; 250 g ai/ha): 5 | phytotoxicity rating RICE (crop damage) ([11]; 63 g ai/ha): 20 | phytotoxicity rating RICE (crop damage) ([11]; 250 g ai/ha): 40 | ECHCG phytotoxicity rating ([12]; 63 g ai/ha): 0 | ECHCG phytotoxicity rating ([12]; 250 g ai/ha): 0 | SETVI phytotoxicity rating ([13]; 63 g ai/ha): 0 | SETVI phytotoxicity rating ([13]; 250 g ai/ha): 20 | IPOHE phytotoxicity rating ([14]; 63 g ai/ha): 60 | IPOHE phytotoxicity rating ([14]; 250 g ai/ha): 80 | CHEAL phytotoxicity rating ([15]; 63 g ai/ha): 70 | CHEAL phytotoxicity rating ([15]; 250 g ai/ha): 100 | DIGSA phytotoxicity rating ([16]; 63 g ai/ha): 0 | DIGSA phytotoxicity rating ([16]; 250 g ai/ha): 10 | AMARE phytotoxicity rating ([17]; 63 g ai/ha): 80 | AMARE phytotoxicity rating ([17]; 250 g ai/ha): 100 | CASOB phytotoxicity rating ([18]; 63 g ai/ha): 40 | CASOB phytotoxicity rating ([18]; 250 g ai/ha): 60 | ABUTH phytotoxicity rating ([19]; 63 g ai/ha): 100 | ABUTH phytotoxicity rating ([19]; 250 g ai/ha): 100 | CORN phytotoxicity rating (crop damage) ([20]; 63 g ai/ha): 0 | CORN phytotoxicity rating (crop damage) ([20]; 250 g ai/ha): 5 | RICE phytotoxicity rating (crop damage) ([21]; 63 g ai/ha): 20 | RICE phytotoxicity rating (crop damage) ([21]; 250 g ai/ha): 35
